Laboratory results as given in US11712434B2, “Compound having anti-cancer effect, and preparation method therefor and use thereof” (3D MEDICINES (BEIJING) CO., LTD., priority 2016, dated 2023).

What was measured:
[1] = test system: NCI-H1648; assay: Cell proliferation assay (Alamar Blue); format: cell-based; details: Homo sapiens, 144 h; NCI-H1648 tumor cell line; 6 days culture
Description: (§1) 1. Instruments and Materials • Thermo 311 CO2 incubator; Haier biosafety cabinet; Molecular Devices microplate reader; Xiangyi brand L530 desktop low speed centrifuge; Olympus IX51 inverted fluorescence microscope, DMEM, RPMI 1640, MEM, DMEM/F12 1:1 medium, Fetal bovine serum, 0.25% trypsin solution, phosphate buffer (Thermo Fisher Shanghai Co., Ltd.); sigma dimethyl sulfoxide (DMSO), resazurin; 54 commercial tumor cell lines (including 26 liver cancer cell lines). Experimental drugs: compounds 1-12 and active drug Linifanib; chemotherapeutic drug Doxorubicin (HY-15142; Shanghai Qianyuan Biomedical Technology Co., Ltd.).
(§2) 2. Experimental Methods • 2.1 Cultivation of Different Cell Lines • 54 cell lines were cultured in a culture medium containing fetal bovine serum and placed in a 5% CO2 incubator at 37° C. for incubation. The cells were all grown in an adherent state, and the growth was observed under an inverted microscope, and subculture was performed when the cell confluence rate reached 80%-90%. The proportion and quantity of passage were determined by experimental needs. The ratio of subculture of this cell line was generally 1:2^˜1:3. • 2.2 Inhibition Effect on the Proliferation of Different Tumor Cell Lines • Cell test: 54 cell lines in logarithmic growth phase were inoculated in 96-well culture plates at 500^˜1×10^4/well (the optimal seeding density of each cell line was determined in pre-experiment), After incubating at 37° C. for 4 h in a 5% CO2 humidification incubator, added 10 μL of compounds 1-12 or Linifanib to each well, and tested 9 drug concentration gradients for each compound (diluted from the highest concentration of the test by 3.16 times). The solubility of each compound was different at a starting concentration of 100 or 30 μM, respectively. The QC reference compound Doxorubicin was added simultaneously to each cell line test, and the final drug concentrations were 10, 3.16, 1, 0.31, 0.1, 0.03, 0.01, 0.003, and 0.001 μM, respectively. In addition, a positive control group (100% inhibition) and a negative control group (0% inhibition) were set at the same time. The drug group was repeated for 2 wells per concentration, and the positive control group and the negative control group were repeated for 6 wells. After the culture was continued for 6 days in the incubator, AlamarBlue test operation was followed; • AlamarBlue test procedure: Incubated with 10 μL of AlamarBlue reagent per well for 1-4 h, shook for 1-2 min, MD microplate reader EX: 560 nm, EM: 590 nm wavelength to measure fluorescence, recorded the results, calculated the cell inhibition rate of the compound of the invention. Cell inhibition rate (%)=(A0% inhibition−A administration)/(A0% inhibition−A100% inhibition)×100%, and then using the method of nonlinear regression using GraphPad Prism 5.0 or MATILAB software (usually using four parameters) to graph and obtain a drug dose response curve to obtain an IC50 value of the compound of the present invention acting on a cancer cell line.

[2] = test system: NCI-H1703; assay: Cell proliferation assay (Alamar Blue); format: cell-based; details: Homo sapiens, 144 h; NCI-H1703 (lung cancer cells); 6 days culture
Description: as §1, §2

[3] = test system: NCI-H2170; assay: Cell proliferation assay (Alamar Blue); format: cell-based; details: Homo sapiens, 144 h; NCI-H2170 tumor cell line; 6 days culture
Description: as §1, §2

[4] = test system: NCI-H526; assay: Cell proliferation assay (Alamar Blue); format: cell-based; details: Homo sapiens, 144 h; NCI-H526 tumor cell line; 6 days culture
Description: as §1, §2

[5] = test system: NCI-H661; assay: Cell proliferation assay (Alamar Blue); format: cell-based; details: Homo sapiens, 144 h; NCI-H661 tumor cell line; 6 days culture
Description: as §1, §2

[6] = test system: NCI-H716; assay: Cell proliferation assay (Alamar Blue); format: cell-based; details: Homo sapiens, 144 h; NCI-H716 tumor cell line; 6 days culture
Description: as §1, §2

[7] = test system: liver cancer; details: liver cancer patients, phase III; cited from earlier work

Row | IC50 [1] | IC50 [2] | IC50 [3] | IC50 [4] | IC50 [5] | IC50 [6] | Structure (SMILES) | toxicity and side effects [7] | ORR (overall response rate) [7] | TTP (time to progression) [7]
1 | 7.17 µM | 0.02 µM | 4 µM | 7.8 µM | 13.3 µM | 4.1 µM | Cc1ccc(F)c(NC(=O)Nc2ccc(-c3cccc4[nH]nc(N)c34)cc2)c1 [Linifanib, reference compound] | greater than Sorafenib | – | –
2 | – | – | – | – | – | – | CNC(=O)c1cc(Oc2ccc(NC(=O)Nc3ccc(Cl)c(C(F)(F)F)c3)cc2)ccn1 [Sorafenib] | – | 6.9% | 4.0 months
